In patent US20060148014A1, “Tubulin isotype screening in cancer therapy using hemiasterlin analogs” (priority 2004, published 2006):

Key:
Assay type in all cases: cell-based
[1] = test system: panel of 19 human breast cancer cell lines; test: Cell growth inhibition assay, panel of 19 human breast cancer cell lines; settings: panel of 19 human breast cancer cell lines
Text: (§1) The following human breast cancer cell lines were obtained from the ATCC. Cells were maintained according to ATCC-recommended culture conditions. AU565 (ATCC Catalog No. ATCC Catalog. No. CRL-2351), BT-20 (ATCC Catalog No. HTB-19), MCF7 (ATCC Catalog No. HTB22), MDA-MB-231 (ATCC Catalog No. HTB-26), MDA-MB-435 (ATCC Catalog No. HTB-129), MDA-MB-468 (ATCC Catalog No. HTB-132), HCC38 (ATCC Catalog No. CRL-2314), HCC70 (ATCC Catalog No. CRL-2315), HCC1143 (ATCC Catalog No. CRL-2321), HCC1428 (ATCC Catalog No. CRL-2327), HCC1500 (ATCC Catalog No. CRL-2329), HCC1806 (ATCC Catalog No. CRL-2335), HCC1954 (ATCC Catalog No. CRL-2338), HCC2218 (ATCC Catalog No. CRL-2343), UACC-812 (ATCC Catalog No. CRL-1897), UACC-893 (ATCC Catalog No. CRL-1902), ZR-75-1 (ATCC Catalog No. CRL-1500), ZR-75-30 (ATCC Catalog No. CRL-1504).
(§2) Cultured human breast cancer cells were placed in 96-well plates and grown in the continuous presence of test compounds for 4 or 7 days. To expose the cells to test compounds for 7 days, medium was replaced with fresh medium containing compounds after 4 days of exposure and cells were incubated for 3 additional days. Cell growth was assessed using modifications (Amin et al., Cancer Res., 47:6040-6045, 1987; incorporated herein by reference) of a methylene blue-based microculture assay (Finlay et al., Anal. Biochem., 139:272-277, 1984; incorporated herein by reference).
Antiproliferative effects of four tubulin-binding anticancer agents were evaluated by a methylene blue-based cell growth inhibin assay in a panel of 19 human breast cancer cell lines. The following agents were used in this study: halichondrin analog E7389, hemiasterlin analog E7974, vinblastine, and paclitaxel. Each IC50 determination was conducted in at least three separate experiments. A presence of multidrug resistance efflux pump (P-glycoprotein or PgP) could markedly affect sensitivity of cell lines to test agents and thus mask correlations between beta-tubulin expression and cell lines' sensitivity to test agents. Cell lines were therefore tested for evidence of PgP expression by monitoring effects of the PgP blocker verapamil (used at a 10 μM concentration) on paclitaxel sensitivity. No evidence for PgP expression was found in any of the cell lines tested (Table 4). […] Inter-drug correlations were seen between sensitivities to the three microtubule polymerization inhibitors E7974, E7389, and vinblastine, but not between the microtubule polymerization stabilizer paclitaxel.

[2] = test system: AU565 human breast cancer cell line; test: Cell growth inhibition assay (methylene blue), AU565; settings: continuous presence of compound 4 or 7 days, at least three experiments, read-out: Average IC50
Text: as §1, §2
(§3) To investigate the possible expression of PgP by the cell lines used in this study, the antiproliferative effects of paclitaxel were determined in the presence and absence of verapamil, a known inhibitor of PgP.

[3] = test system: BT-20 human breast cancer cell line; test: Cell growth inhibition assay (methylene blue), BT-20; settings: continuous presence of compound 4 or 7 days, at least three experiments, read-out: Average IC50
Text: as §1, §2, §3

[4] = test system: MCF-7 human breast cancer cell line; test: Cell growth inhibition assay (methylene blue), MCF-7; settings: MCF7, continuous presence of compound 4 or 7 days, at least three experiments, read-out: Average IC50
Text: as §1, §2, §3

[5] = test system: MDA-MB-231 human breast cancer cell line; test: Cell growth inhibition assay (methylene blue), MDA-MB-231; settings: continuous presence of compound 4 or 7 days, at least three experiments, read-out: Average IC50
Text: as §1, §2, §3

[6] = test system: MDA-MB-435 human breast cancer cell line; test: Cell growth inhibition assay (methylene blue), MDA-MB-435; settings: continuous presence of compound 4 or 7 days, at least three experiments, read-out: Average IC50
Text: as §1, §2, §3

[7] = test system: MDA-MB-468 human breast cancer cell line; test: Cell growth inhibition assay (methylene blue), MDA-MB-468; settings: continuous presence of compound 4 or 7 days, at least three experiments, read-out: Average IC50
Text: as §1, §2, §3

[8] = test system: HCC38 human breast cancer cell line; test: Cell growth inhibition assay (methylene blue), HCC38; settings: continuous presence of compound 4 or 7 days, at least three experiments, read-out: Average IC50
Text: as §1, §2, §3

[9] = test system: HCC70 human breast cancer cell line; test: Cell growth inhibition assay (methylene blue), HCC70; settings: continuous presence of compound 4 or 7 days, at least three experiments, read-out: Average IC50
Text: as §1, §2, §3

[10] = test system: HCC1143 human breast cancer cell line; test: Cell growth inhibition assay (methylene blue), HCC1143; settings: continuous presence of compound 4 or 7 days, at least three experiments, read-out: Average IC50
Text: as §1, §2, §3

[11] = test system: HCC1419 human breast cancer cell line; test: Cell growth inhibition assay (methylene blue), HCC1419; settings: continuous presence of compound 4 or 7 days, at least three experiments, read-out: Average IC50
Procedure: as §2, §3

[12] = test system: HCC1428 human breast cancer cell line; test: Cell growth inhibition assay (methylene blue), HCC1428; settings: continuous presence of compound 4 or 7 days, at least three experiments, read-out: Average IC50
Text: as §1, §2, §3

[13] = test system: HCC1500 human breast cancer cell line; test: Cell growth inhibition assay (methylene blue), HCC1500; settings: continuous presence of compound 4 or 7 days, at least three experiments, read-out: Average IC50
Text: as §1, §2, §3

[14] = test system: HCC1806 human breast cancer cell line; test: Cell growth inhibition assay (methylene blue), HCC1806; settings: continuous presence of compound 4 or 7 days, at least three experiments, read-out: Average IC50
Text: as §1, §2, §3

[15] = test system: HCC1954 human breast cancer cell line; test: Cell growth inhibition assay (methylene blue), HCC1954; settings: continuous presence of compound 4 or 7 days, at least three experiments, read-out: Average IC50
Text: as §1, §2, §3

[16] = test system: HCC2218 human breast cancer cell line; test: Cell growth inhibition assay (methylene blue), HCC2218; settings: HC-2218, continuous presence of compound 4 or 7 days, at least three experiments, read-out: Average IC50
Text: as §1, §2, §3

[17] = test system: UACC-812 human breast cancer cell line; test: Cell growth inhibition assay (methylene blue), UACC-812; settings: continuous presence of compound 4 or 7 days, at least three experiments, read-out: Average IC50
Text: as §1, §2, §3

[18] = test system: UACC-893 human breast cancer cell line; test: Cell growth inhibition assay (methylene blue), UACC-893; settings: continuous presence of compound 4 or 7 days, at least three experiments, read-out: Average IC50
Text: as §1, §2, §3

[19] = test system: ZR-75-1 human breast cancer cell line; test: Cell growth inhibition assay (methylene blue), ZR-75-1; settings: continuous presence of compound 4 or 7 days, at least three experiments, read-out: Average IC50
Text: as §1, §2, §3

[20] = test system: ZR-75-30 human breast cancer cell line; test: Cell growth inhibition assay (methylene blue), ZR-75-30; settings: continuous presence of compound 4 or 7 days, at least three experiments, read-out: Average IC50
Text: as §1, §2, §3

Row | Compound | fold-difference between IC50's in the most sensitive and the least sensitive cell line [1] [fold] | IC50 [2] [nM] | IC50 [3] [nM] | IC50 [4] [nM] | IC50 [5] [nM] | IC50 [6] [nM] | IC50 [7] [nM] | IC50 [8] [nM] | IC50 [9] [nM] | IC50 [10] [nM] | IC50 [11] [nM] | IC50 [12] [nM] | IC50 [13] [nM] | IC50 [14] [nM] | IC50 [15] [nM] | IC50 [16] [nM] | IC50 [17] [nM] | IC50 [18] [nM] | IC50 [19] [nM] | IC50 [20] [nM]
1 | C/C(=C\[C@H](C(C)C)N(C)C(=O)[C@@H](NC(=O)[C@H]1CCCCN1C(C)C)C(C)(C)C)C(=O)O [E7974] | 6.8 |  |  |  |  |  |  |  |  |  |  |  |  |  |  |  |  |  |  | 
2 | CC[C@]1(O)C[C@@H]2CN(CCc3c([nH]c4ccccc34)[C@@](C(=O)OC)(c3cc4c(cc3OC)N(C)[C@H]3[C@@](O)(C(=O)OC)[C@H](OC(C)=O)[C@]5(CC)C=CCN6CC[C@]43[C@@H]65)C2)C1 [Vinblastine, vinblastine] | 5.6 | 1.05 | 1.15 | 0.89 | 1.6 | 0.43 | 0.82 | 0.73 | 0.8 | 0.53 | 1.7 | 0.55 | 0.56 | 0.86 | 0.7 | 1.56 | 1.11 | 1.32 | 1.72 | 2.4
